Consider ten molecules from patent publication US20100166806A1, “Combination therapy comprising the use of protein kinase C modulators and Histone Deacetylase inhibitors for treating HIV-1 latency” (Aphios Corporation, priority 2008, published 2010).

Data set [1] relates to HIV-1 latency in Jurkat-LAT-GFP cells. The experiment in a line: HIV-1 reactivation in Jurkat-LAT-GFP cells (percentage of GFP+ cells by flow cytometry). The conditions noted are these: for HIV-1 reactivation: 10 nM. It counts as cell-based. Background: Flow cytometry measures light scatter and fluorescence of single cells or particles in a stream.
The test system of data set [2] is bryostatin-1-induced HIV-1 reactivation in Jurkat-LAT-GFP cells. As to the kind of experiment: Effect of PKC/MEK inhibitors on bryostatin-1-induced GFP expression in Jurkat-LAT-GFP cells. It counts as cell-based. The note with it: Jurkat-LAT-GFP cells preincubated with inhibitor, then bryostatin-1 (10 nM) 6 h. Here is the method:
The primary interest in Bryostatins has been initiated by recognition of the potent antiproliferative effects against various tumour cells. Such effects have been related to the ability of Bryo-1 to modulate protein kinase C (PKC) activity by activating or degrading certain isoforms of PKC. Since PKC activation mediates different signal pathways that in turn activate the transcription of latent HIV-1, we preincubated Jurkat-LAT-GFP cells with medium or the chemical inhibitors Gö6976 (classical PKCs inhibitor), Gö66850 (classical and novel PKCs inhibitor), Gö6983 (pan-PKC inhibitor), rottlerin (PKCδ inhibitor) and PD98059 (MEK inhibitor) at effective concentrations.
Jurkat LAT-GFP cells were pretreated with the indicated inhibitors for 30 min at the indicated dose, and then stimulated with bryostatin-1 (10 nM) for 6 h. The percentage of GFP+ cells was measured by flow cytometry. Results, shown in FIG. 9, are represented as percentage of activation compared to cells treated with agonists in the absence of the chemical inhibitors (100% activation). The chemical inhibitors Gö6976 (classical PKCs inhibitor), Gö6850 (classical and novel PKCs inhibitor), Gö6983 (pan-PKC inhibitor), rottlerin (PKCδ inhibitor) and PD98059 (MEK inhibitor) were used at the indicated concentrations.

For data set [3], the system named is HIV-1 latent infected cells. The note with it: three of four patients; VPA 500-750 mg twice a day; cited from earlier work.
The test system of another data set is CD4. The experiment in a line: Cell surface expression of CD4 on MT-2 cells by flow cytometry. Type of data set: cell-based, human. Here is the method:
(§1) This effect, shown in FIG. 12, is mediated though a PKC-dependent pathway and is not affected by the presence of VPA. MT-2 cells were treated with 10 nM of bryostatin in the presence or absence of either the PKC inhibitor Gö6850 or the HDAC inhibitor VPA for 24 h and the expression of CD4 and CXCR4 analysed. Cell surface expression of CD4 and CXCR4 antigens were measured by direct fluorescence using specific mAbs and analyzed by flow cytometry in an EPIC XL flow cytometer (Beckman-Coulter Inc. CA, USA). The anti-CXCR4 (clone 12G5, PE-labeled) was from BD Biosciences Pharmigen (San Diego, Calif., USA). The mAb anti-CD4 (clone 6D10, FITC-labelled) was from ImmunoTools (Friesoythe, Del.). Dual-Color Reagent Mouse IgG1/FITC+ Mouse IgG1/PE from DAKO (clone DAK-GO1 directed towards Aspergillus niger glucose oxidase) was used as negative control.

A further data set has as its system CXCR4. As to the kind of experiment: Cell surface expression of CXCR4 on MT-2 cells by flow cytometry. It counts as cell-based, human. As for the experimental part:
as §1

The next data set deals with HIVIIIB variant of HIV-1. The experiment in a line: Virus-induced cytotoxicity assay (HIV-1-induced cell death in CEM-SS cells, XTT). It counts as cell-based. Here is the method: The human T-lymphoblastic cell line CEM-SS was used as the target cell line and virus infections were performed using the HIVIIIB variant of HIV-1 (FIG. 13). Briefly, increasing concentrations of bryostatins (1, 2, 3 and AB) or 3TC (a known inhibitor of HIV RT) were incubated with 5,000 CEM-SS cells and HIVIIIB in a final volume of 200 μl/well at 37° C. for 6 days. After 6 days, 50 μl/well of XTT dye was added and the plate incubated for 4 hours at 37° C. The plate was then read at 450 nm with a reference at 630 nm and the percent CPE, percent inhibition, percent toxicity, effective concentration 50 (EC50), cytotoxic concentration (CC50) and the selective index (CC50/EC50) were calculated. Plates contained the following controls: media, cellular and viral.
For orientation: Tetrazolium dyes change colour on reduction, which living cells bring about.

A further data set concerns IκBα. As to the kind of experiment: Western blot of IκBα phosphorylation and degradation (NF-κB pathway) in Jurkat-LAT-GFP cells. Type of data set: cell-based. Here is the method: (§2) Jurkat-LAT-GFP cells were stimulated with increasing concentrations of bryostatin-1 and the phosphorylation and degradation of the NF-κB inhibitor Iκbα, and the phosphorylation (activation) of the MAPKs, ERK and JNK, were investigated by western blots using specific mAbs.
(§3) Jurkat LAT-GFP cells were incubated with either bryostatin-1 (1, 10, 25, 50 and 100 nM) or with prostratin (0.01, 0.05, 0.1, 0.5, 1 and 10 μM) for 10 min. IκBα phosphorylation and degradation, the phosphorylation status of MAPKs ERK 1+2 and JNK 1+2, and the steady state levels of total ERK 1+2 were analyzed using specific antibodies by western blots. Control and treated cells were washed with PBS and proteins extracted in 50 μl of lysis buffer (20 mM Hepes pH 8.0, 10 mM KCl, 0.15 mM EGTA, 0.15 mM EDTA, 0.5 mM Na3VO4, 5 mM NaFl, 1 mM DTT, leupeptin 1 μg/ml, pepstatin 0.5 μg/ml, aprotinin 0.5 μg/ml, and 1 mM PMSF) containing 0.5% NP-40. Protein concentration was determined by the Bradford assay (Bio-Rad, Richmond, Calif., USA) and thirty μg of proteins were boiled in Laemmli buffer and electrophoresed in 10% SDS/polyacrylamide gels. Separated proteins were transferred to nitrocellulose membranes (0.5 A at 100 V; 4° C.) for 1 h. […]

For data set [4] the following is noted: cited from earlier work.
In another data set the test system is MAPKs ERK1+2 and JNK1+2. As to the kind of experiment: Western blot of phosphorylation (activation) of MAPKs ERK and JNK in Jurkat-LAT-GFP cells. It counts as cell-based. As for the experimental part:
as §2, §3
A general note: A western blot detects proteins with antibodies after separation by electrophoresis.

Where [5] appears, read: MT-2 cells, 10 nM bryostatin, 24 h.
The mark [6] stands for this setting: increasing concentrations of bryostatin-1.

pEC50: −log10 of the molar value. “Also recorded” adds a separate entry of the source.

With `CC(/C=C/C(=O)NO)=C\[C@@H](C)C(=O)c1ccc(N(C)C)cc1` [TSA, trichostatin A, reference compound], the “Synergy with bryostatin-1 to antagonise HIV-1 latency” value in [1] is recorded as “synergises”.

`CC(=O)c1c(O)c(C)c(O)c(Cc2c(O)c3c(c(C(=O)/C=C/c4ccccc4)c2O)OC(C)(C)C=C3)c1O` [rottlerin]: the “Inhibition of GFP expression induced by Bryostatin-1” value (“Inhibition of GFP expression induced” below) in data set [2] is given as “did not affect”.

For `COc1ccc2c(c1)c(C1=C(c3c[nH]c4ccccc34)C(=O)NC1=O)cn2CCCN(C)C` [Gö6983], in [2], the “Inhibition of GFP expression induced” value is “strongly inhibited”.

For the molecule `CCCC(CCC)C(=O)O` [Valproic acid, valproic acid, reference compound], in [3], the “Depletion of HIV-1 latent infected cells in patients” value was “significant depletion”. In the data set with CD4 (setting [5]), the “Effect of VPA on bryostatin-induced CD4 downregulation” value is recorded as “not affected”. In addition, the “Synergy with bryostatin-1 to antagonise HIV-1 latency” value in [1] is “synergises”. In the data set with CXCR4 (setting [5]), the “Effect of VPA on bryostatin-induced CXCR4 downregulation” value is given as “not affected”.

Regarding `CN(C)CCCn1cc(C2=C(c3c[nH]c4ccccc34)C(=O)NC2=O)c2ccccc21` [Gö6850], in [2], the “Inhibition of GFP expression induced” value is reported as “strongly inhibited”.

For `CCC/C=C/C=C/C(=O)O[C@H]1/C(=C/C(=O)OC)C[C@H]2C[C@H]([C@@H](C)O)OC(=O)C[C@H](O)C[C@@H]3C[C@H](OC(C)=O)C(C)(C)[C@](O)(C[C@@H]4C/C(=C/C(=O)OC)C[C@H](/C=C/C(C)(C)[C@]1(O)O2)O4)O3` [bryostatin-1], the pEC50 (commonly −log10 of the EC50, conventionally taken in molar units) in the data set with HIVIIIB variant of HIV-1 was 7.59. For the same molecule, the “Expression of HIV-1 receptor CD4” value in the data set with CD4 (10 nM) is reported as “downregulates”. For the same molecule, in [1], the “HIV-1 reactivation in the presence of valproic acid” value was “can induce HIV-1 reactivation”. Also, the HIV-1 reactivation result in [1] (Jurkat-LAT-GFP cells) is given as “strongly induce HIV-1 reactivation; also recorded: fully reactivates HIV-1 latency”. In addition, the “Potency to antagonize HIV-1 latency relative to prostratin” value in [1] (Jurkat-LAT-GFP cells, 6 h, versus prostratin) amounted to 100 Fold. In addition, in data set [1] (bryostatin-1 100 nM, Jurkat-LAT-GFP cells), the “HIV-1 reactivation (GFP+ cells)” value is recorded as 87 % of GFP+ cells. Also, the “Reduction of the bryostatin-1 concentration allowed by HDACs inhibitors” value in data set [1] (in combination with HDACs inhibitors) is “at least one order of magnitude”. Moreover, in the data set on IκBα (10 nM), the “IκBα phosphorylation and degradation” value is listed as “does not induce”. Moreover, the “Phosphorylation and degradation of IκBα” value in the data set with IκBα (setting [6]) was “induced phosphorylation and degradation”. For the same molecule, in the data set on CXCR4 (10 nM), the “Expression of HIV-1 receptor CXCR4” value is recorded as “downregulates”. Also, in [4], the “Tissue accumulation after i.v. injection” value was “accumulated in several tissues including lymph nodes and the gastrointestinal tract”. Besides, the JNK activation entry in the data set on MAPKs ERK1+2 and JNK1+2 (10 nM) was “does not induce”. The “Activation of the MAPKs ERK1+2 and JNK1+2” value in the data set on MAPKs ERK1+2 and JNK1+2 (setting [6]) was “in a concentration dependent manner”.

In the case of `COc1cccc(-c2cc(=O)c3ccccc3o2)c1N` [PD98059], in data set [2], the “Inhibition of GFP expression induced” value is recorded as “partially inhibited”.

Consider bryostatin-2, for which the HIV-1 reactivation entry in data set [1] (Jurkat-LAT-GFP cells) is reported as “strongly induce HIV-1 reactivation”.

On to `Cn1c2ccccc2c2c3c(c4c5ccccc5n(CCC#N)c4c21)CNC3=O` [Gö6976], for which the “Inhibition of GFP expression induced” value in data set [2] is on record as “strongly inhibited”.

For the molecule `CCC/C=C/C=C/C(=O)O[C@H]1[C@H]2C=C3C[C@H]([C@@H](C)O)OC(=O)C[C@H](O)C[C@@H]4C[C@H](OC(C)=O)C(C)(C)[C@](O)(C[C@@H]5C/C(=C\C(=O)OC)C[C@H](/C=C/C(C)(C)[C@]1(OC(=O)C2)O3)O5)O4` [bryostatin-3], the HIV-1 reactivation entry in [1] (Jurkat-LAT-GFP cells) is listed as “strongly induce HIV-1 reactivation”.
